Reference: PubChem BioAssay (NCI)
Values joined by “and” are separate entries in the source; they are usually repeats but may differ in a detail not shown here. Equal entries are not always repeated.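 Five compound concentrations were applied to cells in 96-well plates for 48 hours; endpoints were derived by simple linear interpolation of the resulting dose-response curve. At the GI50, growth is halved. TGI denotes the concentration required for complete inhibition of growth.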

Tests used:
Assay in all cases: NCI anticancer screen, dose series, 48 h
NCI-H226 lung = test system: NCI-H226 lung
KM12 colon = test system: KM12 colon
TK-10 renal = test system: TK-10 renal
BT-549 breast = test system: BT-549 breast
OVCAR-3 ovarian = test system: OVCAR-3 ovarian
PC-3 prostate = test system: PC-3 prostate
SF-268 CNS = test system: SF-268 CNS
RPMI-8226 leukemia = test system: RPMI-8226 leukemia
MDA-MB-231 breast = test system: MDA-MB-231 breast
HCT-116 colon = test system: HCT-116 colon
ACHN renal = test system: ACHN renal
A549 NSCLC = test system: A549 NSCLC
HS 578T breast = test system: HS 578T breast
IGROV1 ovarian = test system: IGROV1 ovarian
NCI-H522 lung = test system: NCI-H522 lung

Structure (SMILES)	TGI (NCI-H226 lung) [µM]	TGI (KM12 colon) [µM]	TGI (TK-10 renal)	TGI (BT-549 breast) [µM]	TGI (OVCAR-3 ovarian) [µM]	TGI (PC-3 prostate) [µM]	TGI (SF-268 CNS) [µM]	TGI (RPMI-8226 leukemia) [µM]	TGI (MDA-MB-231 breast) [µM]	TGI (HCT-116 colon) [µM]	TGI (ACHN renal) [µM]	TGI (A549 NSCLC) [µM]	TGI (HS 578T breast) [µM]	TGI (IGROV1 ovarian) [µM]	TGI (NCI-H522 lung) [µM]	GI50 (TK-10 renal)	GI50 (BT-549 breast)	GI50 (PC-3 prostate)	GI50 (MDA-MB-231 breast)
CCOC(=O)c1c(NC(=O)c2ccc(Br)cc2)sc2c1CCCC2	> 100	> 100	> 100 µM	> 100	> 100	> 100	> 100	> 100	> 100	> 100	> 100	> 100	> 100	> 100	–	–	–	–	–
Cn1c(=O)sc2cc(C(=S)N3CCN(c4ccccc4)CC3)ccc21	> 100	> 100	> 100 µM	> 100	> 100	> 100	> 100	> 100	> 100	> 100	> 100	–	> 100	> 100	–	–	–	–	–
COc1nc(C)nc2c1ncn2Cc1ccccc1	> 100	> 100	> 100 µM	–	> 100	> 100	> 100	> 100	> 100	> 100	> 100	> 100	> 100	> 100	> 100	–	–	–	–
Cc1cc(-c2ccc(C(=O)C(c3ccccc3)(c3ccccc3)c3ccccc3)[nH]2)on1	42.5	47.5	–	45.8	> 100	49.1	68.7	48.1	49.6	27.9	–	45.6	> 100	73.9	–	–	–	–	–
O=C1C(NS(=O)(=O)c2ccccc2)=C(N(Cc2ccccc2)Cc2ccccc2)C(=O)c2ccccc21	> 100	> 100	> 100 µM	> 100	> 100	> 100	> 100	72.7	> 100	> 100	> 100	> 100	> 100	> 100	–	–	–	–	–
CN(C)Cc1[nH]c2ccccc2c1C(=O)c1ccccc1	> 100	> 100	> 100 µM	–	> 100	–	> 100	> 100	–	> 100	> 100	> 100	–	> 100	> 100	–	–	–	–
COc1ccc(C2C(Cl)C(=O)N2NC(=O)c2ccccc2O)cc1OC (configuration not stated)	> 100	> 100	> 100 µM	–	> 100	–	> 100	–	–	> 100	> 100	> 100	–	> 100	> 100	–	–	–	–
CC(C)(C)N=c1n(C(C)(C)C)oc(=O)n1-c1ccccc1	> 50	> 50	> 50 µM	–	> 50	> 50	> 50	> 50	> 50	> 50	> 50	> 50	> 50	> 50	> 50	–	–	–	–
CN(C)C(=O)Oc1ccc(C(=S)Nc2ccccc2)cc1Br	–	51.6	–	68.7	> 100	> 100	23.5	73.9	–	> 100	> 100	> 100	> 100	48.9	52.4	–	–	–	–
N#Cc1c(N2CCOCC2)ncn(-c2ccc(Cl)cc2)c1=O	> 100	> 100	–	> 100	> 100	> 100	–	> 100	–	> 100	> 100	> 100	–	> 100	–	–	–	–	–
CC(=O)O/N=C/c1cc2c(cc1Br)OCO2	–	> 349	> 349 µM	–	> 349	–	> 349	> 349	–	–	> 349	> 349	–	> 349	> 349	–	–	–	–
CC#Cc1c(C#CC)c(OC)c2c(c1OC)C(=O)c1ccccc1C2=O	–	> 100	> 100 µM	–	> 100	–	78.6	> 100	–	72.6	34.8	> 100	–	> 100	42.5	–	–	–	–
Cc1ccc(F)c2c(=O)cc(-c3ccccc3)[nH]c12	> 100	> 100	> 100 µM	–	–	–	> 100	> 100	–	> 100	> 100	> 100	–	> 100	> 100	–	–	–	–
CC1(C)N=C(Oc2ccccc2)n2nccc2N1	> 100	> 100	> 100 µM	–	> 100	–	> 100	> 100	–	> 100	> 100	> 100	–	> 100	> 100	–	–	–	–
Cc1ccc(Nc2cn(COCc3ccccc3)c(=O)[nH]c2=O)cc1	> 100	> 100	–	82	> 100	> 100	> 100	> 100	–	> 100	> 100	> 100	> 100	> 100	–	–	–	–	–
Cc1cc(C#N)c(Nc2ccccc2[N+](=O)[O-])s1	> 100	> 100	–	60.5	71.5	73.9	> 100	> 100	92.4	> 100	> 100	> 100	–	> 100	57.6	–	–	–	–
O=C1c2ccccc2C(=O)c2c(O)c(NCCNCCO)cc(O)c21	14.9	15.7	17.7 µM	–	15.1	–	15.5	21.4	–	11.9	8.93	13.5	–	6.62	–	–	–	–	–
Cc1ccccc1NC(=O)CSc1nnc(Cc2ccccc2)o1	> 100	> 100	> 100 µM	–	> 100	–	> 100	> 100	–	> 100	> 100	> 100	–	> 100	> 100	–	–	–	–

Structure (SMILES)	TGI (NCI-H226 lung) [µM]	TGI (KM12 colon) [µM]	TGI (TK-10 renal)	TGI (BT-549 breast) [µM]	TGI (OVCAR-3 ovarian) [µM]	TGI (PC-3 prostate) [µM]	TGI (SF-268 CNS) [µM]	TGI (RPMI-8226 leukemia) [µM]	TGI (MDA-MB-231 breast) [µM]	TGI (HCT-116 colon) [µM]	TGI (ACHN renal) [µM]	TGI (A549 NSCLC) [µM]	TGI (HS 578T breast) [µM]	TGI (IGROV1 ovarian) [µM]	TGI (NCI-H522 lung) [µM]	GI50 (TK-10 renal)	GI50 (BT-549 breast)	GI50 (PC-3 prostate)	GI50 (MDA-MB-231 breast)
CCOC(=O)c1ccc(Nc2cnc3ccc(C(F)(F)F)cc3n2)cc1	35.9	25.8	26.9 µM	34	44.8	55.5	34	71.1	43.7	28	28.5	32.3	59.1	30.4	–	–	–	–	–
c1ccc(CSC(SCc2ccccc2)c2ccc3c(c2)OCO3)cc1	> 10	> 10	> 10 µM	–	> 10	> 10	> 10	> 10	> 10	> 10	> 10	> 10	> 10	> 10	> 10	–	–	–	–
N#CCN(Cc1ccccc1)[C@@H]1CCC[C@]1(O)C#Cc1ccc2c(c1)OCO2	33.6	35.4	57.2 µM	–	28.9	50.7	41.1	42.2	36.1	–	36	34.1	37.2	39.7	33.7	–	–	–	–
Cc1[nH]c2ccccc2c1C1=CC(=O)N(c2ccccc2)C1=O	88.4	–	60.7 µM	> 100	> 100	> 100	> 100	> 100	> 100	22.7	> 100	> 100	43.5	> 100	–	–	–	–	–
CC(=O)NC1C(OCc2ccccc2)OC(CO)C(O)C1OCC(=O)N1CCCC1C(=O)NC(CCC(=O)NCCCCCNc1c2ccccc2nc2cccc([N+](=O)[O-])c12)C(N)=O (configuration not stated)	0.514	0.13	0.762 µM	–	0.142	0.0293	0.0966	0.789	0.0426	0.137	0.0813	0.137	0.19	0.86	0.25	–	–	–	–
C=CCC1C2CCC(O[Si](C(C)C)(C(C)C)C(C)C)(C(C(=O)OC)C2)C1O (configuration not stated)	> 100	> 100	> 100 µM	–	> 100	> 100	> 100	> 100	> 100	58.2	> 100	> 100	> 100	> 100	–	–	–	–	–
Cc1nc2nn(C)cc2c(=O)n1/N=C/c1ccccc1	> 100	> 100	> 100 µM	–	> 100	–	> 100	> 100	–	> 100	> 100	> 100	–	> 100	> 100	–	–	–	–
COc1nc(OC)nc(Sc2ccc(Sc3ccc(Sc4nc(OC)nc(OC)n4)cc3)cc2)n1	> 100	> 100	> 100 µM	–	> 100	–	> 100	> 100	–	> 100	> 100	> 100	–	> 100	> 100	–	–	–	–
CC(Nc1n[nH]c(=O)c2c1nnn2Cc1ccccc1)c1ccccc1 (configuration not stated)	–	> 100	> 100 µM and 64.7 µM	> 100	> 100	> 100	–	> 100	> 100	> 100	> 100	> 100	–	–	–	89.3 µM and 23.4 µM	> 100 µM and 37.5 µM	> 100 µM and 20.8 µM	> 100 µM and 49.8 µM
COc1ccccc1Cn1[nH]c(=O)c2cc([N+](=O)[O-])ccc21	> 100	> 100	> 100 µM	–	83	–	> 100	> 100	> 100	> 100	> 100	> 100	> 100	> 100	> 100	–	–	–	–
COC(=O)C1(C)OC(C)=NC1(C(=O)OC)C(=O)OC (configuration not stated)	> 100	> 100	> 100 µM	> 31.6	> 100	> 100	> 100	> 100	> 100	> 100	> 100	> 100	> 100	> 100	–	–	–	–	–
O=C(O)CCc1nc2cc3ccccc3cc2[nH]c1=O	> 100	> 100	> 100 µM	> 100	> 100	> 100	> 100	–	> 100	> 100	> 100	> 100	–	> 100	> 100	–	–	–	–
O=C1Cc2ccccc2CCc2ccsc21	> 100	> 100	> 100 µM	–	> 100	–	> 100	> 100	–	> 100	–	> 100	–	> 100	> 100	–	–	–	–
Cc1cc(C)nc(NS(=O)(=O)c2ccc(NC(=O)c3cccc4c(N)c5ccccc5nc34)cc2)n1	> 100	> 100	> 100 µM	–	> 100	–	> 100	> 100	–	> 100	> 100	> 100	–	> 100	> 100	–	–	–	–
O=C(Nc1ccc(S(=O)(=O)Nc2ncccn2)cc1)c1c2ccccc2nc2ccccc12	> 100	> 100	> 100 µM	> 100	> 100	> 100	> 100	> 100	> 100	> 100	> 100	> 100	–	> 100	> 100	–	–	–	–
COc1ccc(/C=C(\Cl)c2ccc(OC)cc2)cc1	> 100	> 100	> 100 µM	–	> 100	–	> 100	> 100	–	> 100	> 100	> 100	–	–	> 100	–	–	–	–
CC[C@H](C)[C@H]1NC(=O)[C@@H](NC(=O)[C@@H](CC(C)C)N(C)C(=O)C2CCCN2C(=O)[C@H](C)O)[C@@H](C)OC(=O)[C@H](Cc2ccccc2)N(C)C(=O)[C@@H]2CCCN2C(=O)[C@H](CC(C)C)NC(=O)[C@@H](C)C(=O)[C@H](C(C)C)OC(=O)C[C@@H]1O (some centres not stated)	0.00705	< 0.00625	0.00848 µM	< 0.00625	0.0113	0.119	0.00762	–	–	0.00642	< 0.00625	–	0.0114	–	< 0.00625	–	–	–	–
CCCN(CCC)C(=O)c1c(Cl)c2cccnc2n2c(C)cnc12	> 100	> 100	> 100 µM	–	> 100	98.6	> 100	> 100	> 100	> 100	> 100	> 100	> 100	> 100	> 100	–	–	–	–
